Measurements reported in publication PMC8421423, “Cellular model system to dissect the isoform-selectivity of Akt inhibitors” (Nature Communications, 2021).
Values joined by “and” are separate entries in the source; they are usually repeats but may differ in a detail not shown here. Equal values may be shown once. Read-outs that look alike come from different tables or passages of the source.

Columns and labels:
parental Ba/F3 cells = test: CellTiter-Glo cell viability assay; format: cell-based, murine
Ba/F3^myr-Akt1 cells = test: CellTiter-Glo cell viability assay; settings: for Log ratio EC50 [Akt] / EC50 [Akt], Akt1 / Akt2: cell viability assay Ba/F3 myr-Akt cells, log units
Description: (§1) On day 0, cells were plated into white 384-well cell culture plates (Greiner Bio-One) using a Multidrop reagent dispenser (Thermo Fisher Scientific) at cell numbers that ensure linear and optimal luminescent signal intensity (Ba/F3myr-Akt1: 600 cells/well, Ba/F3myr-Akt2: 800 cells/well, Ba/F3myr-Akt3: 800 cells/well). […] Cell viability was analyzed on day 4 using the CellTiter-Glo Assay (Promega) as per the manufacturer’s instructions. […] All experimental points were measured in duplicates for each plate and were replicated in at least three plates.

Ba/F3^myr-Akt2 cells = test: CellTiter-Glo cell viability assay
Description: as §1

Ba/F3^myr-Akt3 cells = test: CellTiter-Glo cell viability assay; settings: for Log ratio EC50 [Akt] / EC50 [Akt], Akt3 / Akt2: cell viability assay Ba/F3 myr-Akt cells, log units
Akt1 [1] = molecular target: T1, Akt1 (Homo sapiens, UniProt P31749); test: STK HTRF KinEASE activity-based assay (IC50); settings: for Log ratio IC50 [Akt] / IC50 [Akt], Akt1 / Akt2: biochemical activity based assay, log units
T1 sequence (P31749 whole entry): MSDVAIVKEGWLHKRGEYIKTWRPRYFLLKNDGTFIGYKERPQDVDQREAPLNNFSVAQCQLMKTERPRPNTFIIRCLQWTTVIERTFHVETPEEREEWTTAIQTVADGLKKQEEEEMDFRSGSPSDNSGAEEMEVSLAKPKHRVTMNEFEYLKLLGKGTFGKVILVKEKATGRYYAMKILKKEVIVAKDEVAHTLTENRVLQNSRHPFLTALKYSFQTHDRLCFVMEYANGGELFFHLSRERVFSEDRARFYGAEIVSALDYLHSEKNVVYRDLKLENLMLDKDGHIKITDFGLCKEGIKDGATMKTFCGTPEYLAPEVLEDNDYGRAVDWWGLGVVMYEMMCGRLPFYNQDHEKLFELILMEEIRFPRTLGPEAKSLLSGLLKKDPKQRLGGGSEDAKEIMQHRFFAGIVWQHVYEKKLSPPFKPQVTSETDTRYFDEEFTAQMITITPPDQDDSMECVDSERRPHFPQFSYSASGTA

Akt2 [2] = molecular target: T2, Akt2 (Homo sapiens, UniProt P31751); test: STK HTRF KinEASE activity-based assay (IC50)
T2 sequence (P31751 whole entry): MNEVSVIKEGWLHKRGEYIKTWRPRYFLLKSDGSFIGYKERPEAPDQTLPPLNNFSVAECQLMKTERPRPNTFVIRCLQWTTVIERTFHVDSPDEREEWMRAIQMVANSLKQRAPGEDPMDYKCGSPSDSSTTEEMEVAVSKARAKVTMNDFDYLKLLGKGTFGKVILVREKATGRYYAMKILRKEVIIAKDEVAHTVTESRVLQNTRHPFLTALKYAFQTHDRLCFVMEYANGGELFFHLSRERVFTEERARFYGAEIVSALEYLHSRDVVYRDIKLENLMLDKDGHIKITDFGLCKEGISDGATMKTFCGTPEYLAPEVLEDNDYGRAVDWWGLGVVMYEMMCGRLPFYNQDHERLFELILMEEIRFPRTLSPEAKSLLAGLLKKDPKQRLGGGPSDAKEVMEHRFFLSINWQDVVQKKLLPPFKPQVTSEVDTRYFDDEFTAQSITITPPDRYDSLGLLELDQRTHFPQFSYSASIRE
Description: The biochemical half maximal inhibitory concentrations (IC50) were determined with the STK HTRF KinEASE assay (Cisbio) according to the manufactor’s instructions. Briefly: 5 µL Kinase solution and 2.5 µL inhibitor solution (8% DMSO in HTRF buffer) were incubated for 1 h before the reaction was started by addition of 2.5 µL starting solution containing ATP and substrate peptide. […] After reaction completion (Akt1: 60 min, Akt2: 20 min, Akt3: 15 min), 10 µL of stop solution were added. […] The quotient of both intensities were recorded at eight different inhibitor concentrations and data fit to a Hill 4-parameter equation with Quattro software suite (Quattro Research GmbH, Martinsried, Germany). Each reaction was performed in duplicates and at least three independent determinations of each IC50 were made.

Akt3 = Akt3 (Homo sapiens, UniProt Q9Y243); test: STK HTRF KinEASE activity-based assay (IC50)
Akt3, sequence (Q9Y243 whole entry): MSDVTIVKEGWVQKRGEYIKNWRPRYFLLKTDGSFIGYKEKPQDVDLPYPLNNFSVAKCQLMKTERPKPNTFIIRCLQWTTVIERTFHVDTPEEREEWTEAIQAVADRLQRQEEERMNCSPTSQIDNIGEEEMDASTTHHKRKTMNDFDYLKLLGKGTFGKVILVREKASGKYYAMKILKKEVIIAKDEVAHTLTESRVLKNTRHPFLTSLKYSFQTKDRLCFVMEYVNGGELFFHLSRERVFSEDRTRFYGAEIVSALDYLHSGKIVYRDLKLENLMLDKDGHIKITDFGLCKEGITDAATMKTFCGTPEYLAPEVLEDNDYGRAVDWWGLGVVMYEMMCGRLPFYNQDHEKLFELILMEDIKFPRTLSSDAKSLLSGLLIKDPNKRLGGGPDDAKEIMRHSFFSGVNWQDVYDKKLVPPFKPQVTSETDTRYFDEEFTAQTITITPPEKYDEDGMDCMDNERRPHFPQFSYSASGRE

Akt1 [3] = molecular target: T1, Akt1; test: PhosphoSens continuous fluorometric kinetic enzyme assay
Description: (§2) By addition of either 8 nM Akt1, 2 nM Akt2, or 5 nM Akt3 (final concentrations) the reactions were initiated. […] Afterwards the kobs-values were plotted versus the inhibitor concentrations [I] and then fit to the following hyperbolic Eq.

Akt2 [4] = molecular target: T2, Akt2; test: as above
Description: as §2

[5] = parental cells, single replicates, read-out: CTG BaF3, individual determinations
[6] = Mus musculus, read-out: CTG BaF3myr-Akt1, Mean, mean of replicates
[7] = Mus musculus, read-out: CTG BaF3myr-Akt1, individual determinations, single replicates
[8] = read-out: CTG BaF3myr-Akt1, individual determinations, single replicates
[9] = Mus musculus, read-out: CTG BaF3myr-Akt2, Mean, mean of replicates
[10] = read-out: CTG BaF3myr-Akt2, individual determinations, single replicates
[11] = Mus musculus, read-out: CTG BaF3myr-Akt3, Mean, mean of replicates
[12] = Mus musculus, read-out: CTG BaF3myr-Akt3, individual determinations, single replicates
[13] = read-out: CTG BaF3myr-Akt3, individual determinations, single replicates
[14] = HTRF IC50 Akt1, Mean, mean of replicates
[15] = HTRF IC50 Akt1, individual determinations, single replicates
[16] = IC50 Akt1, HTRF, ATP at KM, 1 h preincubation
[17] = HTRF IC50 Akt2, Mean, mean of replicates
[18] = HTRF IC50 Akt2, individual determinations, single replicates
[19] = IC50 Akt2, HTRF, ATP at KM, 1 h preincubation
[20] = HTRF IC50 Akt3, Mean, mean of replicates
[21] = HTRF IC50 Akt3, individual determinations, single replicates
[22] = IC50 Akt3, HTRF, ATP at KM, 1 h preincubation
[23] = Ki Akt1, Mean, mean of replicates
[24] = Ki Akt1, individual determinations, single replicates
[25] = read-out: kinact /Ki Akt1, Mean, mean of replicates
[26] = read-out: kinact Akt1, individual determinations, single replicates
[27] = Ki Akt2, Mean, mean of replicates
[28] = Ki Akt2, individual determinations, single replicates
[29] = read-out: kinact /Ki Akt2, Mean, mean of replicates
[30] = read-out: kinact /Ki Akt2, individual determinations, single replicates
[31] = read-out: kinact Akt2, individual determinations, single replicates
[32] = Mus musculus, BaF3, CTG, parental BaF3 cell line, read-out: EC50 BaF3
[33] = Mus musculus, BaF3, parental cells, mean of replicates, read-out: CTG BaF3, Mean
[34] = Mus musculus, BaF3, parental cells, single replicates, read-out: CTG BaF3, individual determinations

## C=CC(=O)Nc1ccc2[nH]c(=O)n(C3CCN(Cc4ccc(-c5ncc(C(=O)Nc6cnn(C)c6)cc5-c5ccccc5)cc4)CC3)c2c1 [compound 13]
Parental Ba/F3 cells; [5]
  EC50: 9100 nM and 28800 nM and > 30000 nM
Ba/F3^myr-Akt1 cells; [6]
  EC50: 19300 nM
Ba/F3^myr-Akt1 cells; [7]
  EC50: 21300 nM
Ba/F3^myr-Akt1 cells
  Log ratio EC50 [Akt] / EC50 [Akt], Akt1 / Akt2: 0.43
Ba/F3^myr-Akt1 cells; [8]
  EC50: 19500 nM and 17100 nM
Ba/F3^myr-Akt2 cells; [9]
  EC50: 7180 nM
Ba/F3^myr-Akt2 cells; Mus musculus, read-out: CTG BaF3myr-Akt2, individual determinations, single replicates
  EC50: 7180 nM
Ba/F3^myr-Akt2 cells; [10]
  EC50: 6220 nM and 7660 nM
Ba/F3^myr-Akt3 cells; [11]
  EC50: 22600 nM
Ba/F3^myr-Akt3 cells; [12]
  EC50: 25800 nM
Ba/F3^myr-Akt3 cells
  Log ratio EC50 [Akt] / EC50 [Akt], Akt3 / Akt2: -0.50
Ba/F3^myr-Akt3 cells; [13]
  EC50: 26500 nM and 15600 nM
Akt1 [1]; [14]
  IC50: 97.6 nM
Akt1 [1]; [15]
  IC50: 113 nM and 96 nM and 84.4 nM
Akt1 [1]; [16]
  IC50: 98 ± 15 nM
Akt1 [1]
  Log ratio IC50 [Akt] / IC50 [Akt], Akt1 / Akt2: 0.27
Akt2 [2]; [17]
  IC50: 53.5 nM
Akt2 [2]; [18]
  IC50: 53.9 nM and 59.1 nM and 47.4 nM
Akt2 [2]; [19]
  IC50: 53 ± 5 nM
Akt3; [20]
  IC50: 3540 nM
Akt3; [21]
  IC50: 3080 nM and 3130 nM and 4410 nM
Akt3; [22]
  IC50: 3540 ± 617 nM
Akt1 [3]; Ki Akt1
  Ki: 8 ± 2 nM
Akt1 [3]; [23]
  Ki: 8.12 nM
Akt1 [3]; [24]
  Ki: 5.5 nM and 10.9 nM
Akt1 [3]; read-out: kinact /Ki Akt1
  kinact/KI: 31000 ± 11000 M⁻¹ s⁻¹
Akt1 [3]; [25]
  kinact/KI: 31000 M⁻¹ s⁻¹
Akt1 [3]; read-out: kinact Akt1
  kinact: 0.000233 s⁻¹
Akt1 [3]; [26]
  kinact: 0.00025 s⁻¹
Akt1 [3]; single replicates
  kinact Akt1, individual determinations: 0.012 min⁻¹ and 0.015 min⁻¹
Akt2 [4]; Ki Akt2
  Ki: 40 ± 3 nM
Akt2 [4]; [27]
  Ki: 40.8 nM
Akt2 [4]; [28]
  Ki: 42.3 nM (2×) and 37.7 nM
Akt2 [4]; read-out: kinact /Ki Akt2
  kinact/KI: 8000 ± 1000 M⁻¹ s⁻¹
Akt2 [4]; [29]
  kinact/KI: 7580 M⁻¹ s⁻¹
Akt2 [4]; [30]
  kinact/KI: 7430 M⁻¹ s⁻¹
Akt2 [4]; read-out: kinact Akt2
  kinact: 0.000317 s⁻¹
Akt2 [4]; read-out: kinact Akt2, Mean, mean of replicates
  kinact: 0.000317 s⁻¹
Akt2 [4]; [31]
  kinact: 0.000317 s⁻¹
Akt2 [4]; single replicates
  kinact /Ki Akt2, individual determinations: 0.00743
  kinact Akt2, individual determinations: 0.019 min⁻¹ and 0.018 min⁻¹

## C=CC(=O)Nc1ccc2[nH]c(=O)n(C3CCN(Cc4ccc(-c5ncc(C(=O)Nc6cccc(N)c6)cc5-c5ccccc5)cc4)CC3)c2c1 [compound 18]
Parental Ba/F3 cells; [32]
  EC50: > 30000 nM
Parental Ba/F3 cells; [33]
  EC50: > 30000 nM
Parental Ba/F3 cells; [34]
  EC50: > 30000 nM
Parental Ba/F3 cells; [5]
  EC50: > 30000 nM
Ba/F3^myr-Akt1 cells; [6]
  EC50: 17800 nM
Ba/F3^myr-Akt1 cells
  Log ratio EC50 [Akt] / EC50 [Akt], Akt1 / Akt2: 1.08
Ba/F3^myr-Akt1 cells; [8]
  EC50: 14100 nM and 13100 nM and 26300 nM
Ba/F3^myr-Akt2 cells; [9]
  EC50: 1480 nM
Ba/F3^myr-Akt2 cells; [10]
  EC50: 1640 nM and 2110 nM and 691 nM
Ba/F3^myr-Akt3 cells; [11]
  EC50: 18200 nM
Ba/F3^myr-Akt3 cells
  Log ratio EC50 [Akt] / EC50 [Akt], Akt3 / Akt2: -1.09
Ba/F3^myr-Akt3 cells; [13]
  EC50: 10300 nM and 26000 nM and 21500 nM
Akt1 [1]; [14]
  IC50: 90.6 nM
Akt1 [1]; [15]
  IC50: 106 nM and 73.7 nM and 92.3 nM
Akt1 [1]; [16]
  IC50: 91 ± 13 nM
Akt1 [1]
  Log ratio IC50 [Akt] / IC50 [Akt], Akt1 / Akt2: 0.37
Akt2 [2]; [17]
  IC50: 38.4 nM
Akt2 [2]; [18]
  IC50: 36.7 nM and 47.9 nM and 40 nM
Akt2 [2]; [19]
  IC50: 39 ± 6 nM
Akt3; [20]
  IC50: 5270 nM
Akt3; [21]
  IC50: 3820 nM and 6130 nM and 5850 nM
Akt3; [22]
  IC50: 5270 ± 1030 nM
Akt1 [3]; Ki Akt1
  Ki: 6 ± 1 nM
Akt1 [3]; [23]
  Ki: 6.62 nM
Akt1 [3]; [24]
  Ki: 4.2 nM and 7.8 nM and 7.9 nM
Akt1 [3]; read-out: kinact /Ki Akt1
  kinact/KI: 32000 ± 5000 M⁻¹ s⁻¹
Akt1 [3]; [25]
  kinact/KI: 44000 M⁻¹ s⁻¹
Akt1 [3]; read-out: kinact Akt1
  kinact: 0.000167 s⁻¹
Akt1 [3]; read-out: kinact Akt1, Mean, mean of replicates
  kinact: 0.000267 s⁻¹
Akt1 [3]; [26]
  kinact: 0.000267 s⁻¹
Akt1 [3]; single replicates
  kinact Akt1, individual determinations: 0.014 min⁻¹ and 0.018 min⁻¹
Akt2 [4]; Ki Akt2
  Ki: 11 ± 2 nM
Akt2 [4]; [27]
  Ki: 11.3 nM
Akt2 [4]; [28]
  Ki: 10.1 nM and 10.2 nM and 13.6 nM
Akt2 [4]; read-out: kinact /Ki Akt2
  kinact/KI: 15000 ± 1000 M⁻¹ s⁻¹
Akt2 [4]; [29]
  kinact/KI: 15000 M⁻¹ s⁻¹
Akt2 [4]; [30]
  kinact/KI: 15000 M⁻¹ s⁻¹
Akt2 [4]; read-out: kinact Akt2
  kinact: 0.000167 s⁻¹
Akt2 [4]; [31]
  kinact: 0.00015 s⁻¹
Akt2 [4]; single replicates
  kinact Akt2, individual determinations: 0.009 min⁻¹ and 0.013 min⁻¹

## C=CC(=O)Nc1ccc2[nH]c(=O)n(C3CCN(Cc4ccc(-c5ncc(C(=O)Nc6cccnc6)cc5-c5ccccc5)cc4)CC3)c2c1 [compound 22]
Parental Ba/F3 cells; [32]
  EC50: > 30000 nM
Parental Ba/F3 cells; [33]
  EC50: > 30000 nM
Parental Ba/F3 cells; [34]
  EC50: > 30000 nM
Parental Ba/F3 cells; [5]
  EC50: > 30000 nM
Ba/F3^myr-Akt1 cells; [7]
  EC50: > 30000 nM
Ba/F3^myr-Akt1 cells
  Log ratio EC50 [Akt] / EC50 [Akt], Akt1 / Akt2: 0.79
Ba/F3^myr-Akt1 cells; [8]
  EC50: 15100 nM and 22500 nM
Ba/F3^myr-Akt2 cells; [9]
  EC50: 3680 nM
Ba/F3^myr-Akt2 cells; [10]
  EC50: 3180 nM and 5400 nM and 2460 nM
Ba/F3^myr-Akt3 cells; [11]
  EC50: 18800 nM
Ba/F3^myr-Akt3 cells; [12]
  EC50: 18300 nM
Ba/F3^myr-Akt3 cells
  Log ratio EC50 [Akt] / EC50 [Akt], Akt3 / Akt2: -0.71
Ba/F3^myr-Akt3 cells; [13]
  EC50: 20700 nM and 18200 nM
Akt1 [1]; [14]
  IC50: 209 nM
Akt1 [1]; [15]
  IC50: 248 nM and 169 nM and 245 nM
Akt1 [1]; [16]
  IC50: 209 ± 40 nM
Akt1 [1]
  Log ratio IC50 [Akt] / IC50 [Akt], Akt1 / Akt2: 0.58
Akt2 [2]; [17]
  IC50: 54.7 nM
Akt2 [2]; [18]
  IC50: 57.5 nM and 58.8 nM and 47.9 nM
Akt2 [2]; [19]
  IC50: 55 ± 5 nM
Akt3; [20]
  IC50: 3050 nM
Akt3; [21]
  IC50: 2240 nM and 3090 nM and 3820 nM
Akt3; [22]
  IC50: 3050 ± 646 nM
Akt1 [3]; Ki Akt1
  Ki: 9 ± 3 nM
Akt1 [3]; [23]
  Ki: 8.74 nM
Akt1 [3]; [24]
  Ki: 12 nM and 5.9 nM and 8.3 nM
Akt1 [3]; read-out: kinact /Ki Akt1
  kinact/KI: 26000 ± 1000 M⁻¹ s⁻¹
Akt1 [3]; [25]
  kinact/KI: 26000 M⁻¹ s⁻¹
Akt1 [3]; read-out: kinact /Ki Akt1, individual determinations, single replicates
  kinact/KI: 26000 M⁻¹ s⁻¹
Akt1 [3]; read-out: kinact Akt1
  kinact: 0.000233 s⁻¹
Akt1 [3]; [26]
  kinact: 0.000317 s⁻¹
Akt1 [3]; single replicates
  kinact Akt1, individual determinations: 0.010 min⁻¹ and 0.013 min⁻¹
Akt2 [4]; Ki Akt2
  Ki: 11 ± 1 nM
Akt2 [4]; [27]
  Ki: 10.8 nM
Akt2 [4]; [28]
  Ki: 9.4 nM and 10.7 nM and 12.2 nM
Akt2 [4]; read-out: kinact /Ki Akt2
  kinact/KI: 23000 ± 7000 M⁻¹ s⁻¹
Akt2 [4]; [29]
  kinact/KI: 23000 M⁻¹ s⁻¹
Akt2 [4]; [30]
  kinact/KI: 30000 M⁻¹ s⁻¹
Akt2 [4]; read-out: kinact Akt2
  kinact: 0.000233 s⁻¹
Akt2 [4]; [31]
  kinact: 0.000283 s⁻¹
Akt2 [4]; single replicates
  kinact Akt2, individual determinations: 0.013 min⁻¹ and 0.012 min⁻¹
